Read-outs that look alike come from different tables or passages of the source.
How the values were obtained:
[1] = 13-week repeated topical ocular administration toxicity study in rabbits (Example 11); conditions: for intraocular pressure: FIG. 15
Description: (§1) A study was conducted to evaluate toxicity outcomes of repeated topical ocular administration of roflumilast. Male and female New Zealand white rabbits (n=7 per group) were administered: (a) vehicle-based placebo three times a day; (b) a 0.1% w/v roflumilast formulation (Example 3) three times a day; (c) a 0.3% w/v roflumilast formulation (Example 3) three times a day; or (d) a 1.0% w/v roflumilast formulation (Example 3) three times a day. In the study, male and female New Zealand White rabbits received 13 weeks of topical treatment, three times a day, followed by a four-week recovery period, in four dose arms, 0%, 0.1%, 0.3%, and 1% concentration of roflumilast. In addition to regular safety and well-being checks, animals were given regular ophthalmic exams, measurement of weight, tonometry to test intraocular pressure, clinical chemistry and hematological evaluation, and other routine checks of health and well being. At the point of study termination, ocular tissues and major organs were tested for macro- and microscopic observation. […] Parameters evaluated included body weight, intraocular pressure (IOP), and central corneal thickness (CCT).

[2] = Saturation concentration of roflumilast in the suspension formulation; format: physicochemical; conditions: formulation characteristic used in the simulation
Description: Computational modeling of topical ophthalmic roflumilast dosing was carried out using an ocular simulation computer program based on Matlab® (Mathworks, Natick, MA) programming language using a runtime Java® applet for a graphical user-friendly interface. Physiological and anatomic parameters for the ocular simulation were customized to model the pigmented rabbit eye, by entering appropriate volumes of distribution and surface areas of anterior and posterior compartment tissues. […] Based on these parameters, theoretical calculations were carried out for all simulations, while for matching concentrations with actual experimental data the model was used for comparison, fitting, and optimization.

[3] = Ocular tissue concentration of roflumilast after 5 days topical ocular dosing (Example 8, Table 7); format: in vivo, Dutch belted rabbits
Description: Two unique animal studies were conducted to assess the concentration of roflumilast in various tissues following administration of different concentrations of Example 3. The concentration in various tissues was assessed following five days of administration of the following dosing regimens: (a) 1% w/v roflumilast three times a day (TID); (b) 0.3% w/v roflumilast three times a day (TID); or (c) 0.1% w/v roflumilast two times a day (BID). In one study encompassing (a) and (b), n=6 Dutch belted rabbits per dose arm were dosed topically three times per day according to arm on days 1 to 4, and on day 5, a single dose was given at hour 0. In a different study with the same methodologies and practices, n=21 Dutch belted rabbits represented in group (c) were dosed two times per day on days 1 to 4, and on day 5, a single dose was given at hour 0. […] In the original study conducted solely with arm (c), a dose curve was created using time points at 0.5, 2, 4, 8, and 24 hours. To reduce the number of animals in the second experiment, for group (a) and (b), only 0.5 and 8 hours were tested. FIG. 1 provides data for the concentration of roflumilast (ng/g) in the iris ciliary body (ICB) as a function of time following: (a) 1% w/v roflumilast administered three times a day; (b) 0.3% w/v roflumilast administered three times a day; or (c) 0.1% w/v roflumilast administered two times a day. FIG. 2 provides data for the concentration of roflumilast (ng/g) in the aqueous humor (AH) as a function of time following: (a) 1% w/v roflumilast administered three times a day; (b) 0.3% w/v roflumilast administered three times a day; or (c) 0.1% w/v roflumilast administered two times a day. FIG. 3 provides data for the concentration of roflumilast (ng/g) in the retina/choroid/retina pigment epithelium (RPE) as a function of time following: (a) 1% w/v roflumilast administered three times a day; (b) 0.3% w/v roflumilast administered three times a day; or (c) 0.1% w/v roflumilast administered two times a day. […] (Claveau, 2004) This ratio is shown at both 0.5 hours, closest to a Cmax time point, and 8 hrs, which would be a time point close to a redosing time point for a TID dosing.

[4] = Ocular pigment binding, equilibrium sepia melanin association (Covance, method by Koeberle et al.); format: in vitro ADME
[5] = 13-week repeated topical ocular administration study in dogs (Example 10)
Description: In the study, male and female dogs (n=3M/3F per arm to week 13, 2M/2F to additional 4 week recovery) received 13 weeks of topical treatment, three times a day, followed by a four week recovery period, in four dose arms, 0%, 0.1%, 0.3%, and 1% concentration of roflumilast. In addition to regular safety and well-being checks, animals were given regular ophthalmic exams, measurement of weight, tonometry to test intraocular pressure, pachymetery to test corneal thickness, clinical chemistry and hematological evaluation, and other routine checks of health and well-being. At the point of study termination, ocular tissues and major organs were tested for macro- and microscopic observation.

[6] = rabbit, in vivo
Description: as §1

[7] = system: PDE4 A, B, D; conditions: also printed as 0.07 ng/g; cited from earlier work
[8] = dog, in vivo

SMILES: O=C(Nc1c(Cl)cncc1Cl)c1ccc(OC(F)F)c(OCC2CC2)c1 [Roflumilast, N-(3,5-dichloropyrid-4-yl)-3-cyclopropylmethoxy-4-difluoromethoxybenzamide]
- major clinical or pathological findings in life or post-mortem ([1]; New Zealand White rabbits, 0.1%, 0.3%, 1% TID topical ocular, 13 weeks plus four-week recovery): no major test article related findings
- intraocular pressure ([1]; rabbits, 0.1% w/v TID, day 28, only transiently, still within a normal range): higher
- systemic adverse effect on the eye or other organs (ophthalmic and other exams) ([1]; rabbits, 0.1%, 0.3%, 1.0% w/v TID): little to no systemic adverse effect
- body weight ([1]; rabbits, all concentrations TID, compared to vehicle-based placebo, FIG. 14): did not lose weight
- central corneal thickness ([1]; rabbits, all treatment groups, FIG. 16): substantially the same for all treatment groups
- intraocular pressure ([1]; rabbits, all treatment groups, remaining days): substantially the same for all treatment groups
- saturation concentration [2]: 6 µg/mL
- Ratio of Roflumilast Concentration to PDE4 IC50 ([3]; AH, 0.10% BID days 1-4, single dose day 5, 0.5 hrs post dose): 53×
- Ratio of Roflumilast Concentration to PDE4 IC50 ([3]; AH, 0.10% BID days 1-4, single dose day 5, 8 hrs post dose): 0×
- Ratio of Roflumilast Concentration to PDE4 IC50 ([3]; AH, 0.30% TID days 1-4, single dose day 5, 0.5 hrs post dose): 143×
- Ratio of Roflumilast Concentration to PDE4 IC50 ([3]; AH, 0.30% TID days 1-4, single dose day 5, 8 hrs post dose): 4×
- Ratio of Roflumilast Concentration to PDE4 IC50 ([3]; AH, 1.00% TID days 1-4, single dose day 5, 0.5 hrs post dose): 476×
- Ratio of Roflumilast Concentration to PDE4 IC50 ([3]; AH, 1.00% TID days 1-4, single dose day 5, 8 hrs post dose): 10×
- Ratio of Roflumilast Concentration to PDE4 IC50 ([3]; Cornea, 0.10% BID days 1-4, single dose day 5, 0.5 hrs post dose): 2286×
- Ratio of Roflumilast Concentration to PDE4 IC50 ([3]; Cornea, 0.10% BID days 1-4, single dose day 5, 8 hrs post dose): 509×
- tissue levels relative to the IC50 level ([3]; ICB, AH, and retina/choroid/RPE, 0.3% and 1% TID): strong elevation in tissue levels above the IC50 level
- Ratio of Roflumilast Concentration to PDE4 IC50 ([3]; ICB, 0.10% BID days 1-4, single dose day 5, 0.5 hrs post dose): 66×
- Ratio of Roflumilast Concentration to PDE4 IC50 ([3]; ICB, 0.10% BID days 1-4, single dose day 5, 8 hrs post dose): 2×
- Ratio of Roflumilast Concentration to PDE4 IC50 ([3]; ICB, 0.30% TID days 1-4, single dose day 5, 0.5 hrs post dose): 247×
- Ratio of Roflumilast Concentration to PDE4 IC50 ([3]; ICB, 0.30% TID days 1-4, single dose day 5, 8 hrs post dose): 9×
- Ratio of Roflumilast Concentration to PDE4 IC50 ([3]; ICB, 1.00% TID days 1-4, single dose day 5, 0.5 hrs post dose): 534×
- Ratio of Roflumilast Concentration to PDE4 IC50 ([3]; ICB, 1.00% TID days 1-4, single dose day 5, 8 hrs post dose): 22×
- Ratio of Roflumilast Concentration to PDE4 IC50 ([3]; RET/CHOR, 0.10% BID days 1-4, single dose day 5, 0.5 hrs post dose): 15×
- Ratio of Roflumilast Concentration to PDE4 IC50 ([3]; RET/CHOR, 0.10% BID days 1-4, single dose day 5, 8 hrs post dose): 5×
- Ratio of Roflumilast Concentration to PDE4 IC50 ([3]; RET/CHOR, 0.30% TID days 1-4, single dose day 5, 0.5 hrs post dose): 91×
- Ratio of Roflumilast Concentration to PDE4 IC50 ([3]; RET/CHOR, 0.30% TID days 1-4, single dose day 5, 8 hrs post dose): 14×
- Ratio of Roflumilast Concentration to PDE4 IC50 ([3]; RET/CHOR, 1.00% TID days 1-4, single dose day 5, 0.5 hrs post dose): 167×
- Ratio of Roflumilast Concentration to PDE4 IC50 ([3]; RET/CHOR, 1.00% TID days 1-4, single dose day 5, 8 hrs post dose): 52×
- duration of terminal level therapeutic concentrations covering the relevant IC50 ([3]; cornea, 0.1% BID four days plus single dose day 5, FIG. 5): ~24 h
- ocular pigment binding [4]: medium to high
- major clinical or pathological findings in life or post-mortem ([5]; 0.1%, 0.3%, 1% TID topical ocular, 13 weeks plus 4 week recovery): no major test article related findings
- systemic adverse effect on the eye or other organs (ophthalmic and other exams) ([5]; 0.1%, 0.3%, 1.0% w/v TID): little to no systemic adverse effect
- body weight ([5]; all concentrations TID, compared to vehicle-based placebo, FIG. 11): did not lose weight
- central corneal thickness ([5]; all treatment groups over the duration of the study, FIG. 13): substantially consistent for all treatment groups
- intraocular pressure ([5]; all treatment groups, only transient changes seen sporadically, FIG. 12): substantially the same for all treatment groups
- tolerability [6]: well tolerated at all concentrations
- IC50 of t-cells for the PDE4 A, B, D targets [7]: 0.07 ng/mL
- tolerability [8]: well tolerated at all concentrations

— patent publication US20250032468A1, “OCULAR SURFACE TOPICAL ADMINISTRATION OF ROFLUMILAST FOR TREATMENT OF ANTERIOR AND RETINAL-VITREOUS CHAMBER OCULAR DISEASES” (IOLYX THERAPEUTICS, INC., priority 2023, published 2025)
